Test results reported in patent publication US10167262B2, “Herbicidal substituted 3-arylpyrazoles” (FMC CORPORATION, priority 2014, dated 2019).

Experiments:
Type in all cases: in vivo
[1] = tested on: winter barley (Hordeum vulgare); test: Test C postemergence greenhouse test, plant response rating 0-100; details: for Plant response rating (0 to 100), Barley: 62 g ai/ha; for Plant response rating, Barley: scale 0 to 100
Method in brief: (§1)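 Plants rated visually 0 (no effect) to 100 (complete control) against untreated controls after 13 to 15 days in the greenhouse, dash indicating no result. Treatment was a postemergence application of formulated chemicals at the 1- to 4-leaf stage (2 to 18 cm), in pots of peat-vermiculite medium.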

[2] = tested on: surinam grass (Brachiaria decumbens); test: as above; details: for Plant response rating, Surinam Grass: scale 0 to 100
Method in brief: as §1

[3] = tested on: bermudagrass (Cynodon dactylon); test: as above; details: for Plant response rating (0 to 100), Bermudagrass: 62 g ai/ha; for Plant response rating, Bermudagrass: scale 0 to 100
Method in brief: as §1

[4] = tested on: windgrass (Apera spica-venti); test: as above; details: for Plant response rating, Windgrass: scale 0 to 100
Method in brief: as §1

[5] = tested on: green foxtail (Setaria viridis); test: as above; details: for Plant response rating, Foxtail, Green: scale 0 to 100
Method in brief: as §1

[6] = tested on: deadnettle (henbit deadnettle, Lamium amplexicaule); test: as above; details: for Plant response rating, Deadnettle: scale 0 to 100
Method in brief: as §1

[7] = tested on: goosegrass (Eleusine indica); test: as above; details: for Plant response rating, Goosegrass: scale 0 to 100
Method in brief: as §1

[8] = tested on: downy bromegrass (Bromus tectorum); test: as above; details: for Plant response rating (0 to 100), Bromegrass, Downy: 62 g ai/ha; for Plant response rating, Bromegrass, Downy: scale 0 to 100
Method in brief: as §1

[9] = tested on: cocklebur (common cocklebur, Xanthium strumarium); test: as above; details: for Plant response rating, Cocklebur: scale 0 to 100
Method in brief: as §1

[10] = tested on: canarygrass (Phalaris minor); test: as above; details: for Plant response rating, Canarygrass: scale 0 to 100
Method in brief: as §1

[11] = tested on: woolly cupgrass (Eriochloa villosa); test: as above; details: for Plant response rating, Cupgrass, Woolly: scale 0 to 100
Method in brief: as §1

[12] = tested on: waterhemp_RES1, (ALS & Triazine resistant common waterhemp, Amaranthus rudis); test: Test E postemergence greenhouse test, plant response rating 0-100; details: scale 0 to 100
Method in brief: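 Visual ratings, 0 (no effect) to 100 (complete control), made versus controls 14–21 days after postemergence application in the greenhouse. Plants were at 1- to 4-leaf stage (2–18 cm) in peat moss/vermiculite potting medium.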

Cn1cc(C(=O)c2cccs2)c(-c2cc(Cl)cc(Cl)c2)n1 [Compound 17]
Plant response rating (0 to 100), Barley [1]: 0 | Plant response rating, Barley ([1]; 125 g ai/ha): 0 | Plant response rating, Barley ([1]; 250 g ai/ha): 0 | Plant response rating, Barley ([1]; 500 g ai/ha): 0 | Plant response rating (0 to 100), Surinam Grass ([2]; 62 g ai/ha): 0 | Plant response rating (0 to 100), Surinam Grass ([2]; 125 g ai/ha): 0 | Plant response rating, Surinam Grass ([2]; 250 g ai/ha): 5 | Plant response rating, Surinam Grass ([2]; 500 g ai/ha): 5 | Plant response rating (0 to 100), Bermudagrass [3]: 0 | Plant response rating, Bermudagrass ([3]; 125 g ai/ha): 0 | Plant response rating, Bermudagrass ([3]; 250 g ai/ha): 0 | Plant response rating, Bermudagrass ([3]; 500 g ai/ha): 0 | Plant response rating (0 to 100), Windgrass ([4]; 62 g ai/ha): 0 | Plant response rating (0 to 100), Windgrass ([4]; 125 g ai/ha): 0 | Plant response rating, Windgrass ([4]; 250 g ai/ha): 0 | Plant response rating, Windgrass ([4]; 500 g ai/ha): 0 | Plant response rating (0 to 100), Foxtail, Green ([5]; 62 g ai/ha): 0 | Plant response rating (0 to 100), Foxtail, Green ([5]; 125 g ai/ha): 0 | Plant response rating, Foxtail, Green ([5]; 250 g ai/ha): 0 | Plant response rating, Foxtail, Green ([5]; 500 g ai/ha): 0 | Plant response rating (0 to 100), Deadnettle ([6]; 62 g ai/ha): 0 | Plant response rating (0 to 100), Deadnettle ([6]; 125 g ai/ha): 0 | Plant response rating, Deadnettle ([6]; 250 g ai/ha): 0 | Plant response rating, Deadnettle ([6]; 500 g ai/ha): 0 | Plant response rating (0 to 100), Goosegrass ([7]; 62 g ai/ha): 0 | Plant response rating (0 to 100), Goosegrass ([7]; 125 g ai/ha): 0 | Plant response rating, Goosegrass ([7]; 250 g ai/ha): 5 | Plant response rating, Goosegrass ([7]; 500 g ai/ha): 5 | Plant response rating (0 to 100), Bromegrass, Downy [8]: 0 | Plant response rating, Bromegrass, Downy ([8]; 125 g ai/ha): 0 | Plant response rating, Bromegrass, Downy ([8]; 250 g ai/ha): 0 | Plant response rating, Bromegrass, Downy ([8]; 500 g ai/ha): 0 | Plant response rating (0 to 100), Cocklebur ([9]; 62 g ai/ha): 5 | Plant response rating (0 to 100), Cocklebur ([9]; 125 g ai/ha): 10 | Plant response rating, Cocklebur ([9]; 250 g ai/ha): 30 | Plant response rating, Cocklebur ([9]; 500 g ai/ha): 40 | Plant response rating (0 to 100), Canarygrass ([10]; 62 g ai/ha): 0 | Plant response rating (0 to 100), Canarygrass ([10]; 125 g ai/ha): 0 | Plant response rating, Canarygrass ([10]; 250 g ai/ha): 0 | Plant response rating, Canarygrass ([10]; 500 g ai/ha): 5 | Plant response rating (0 to 100), Cupgrass, Woolly ([11]; 62 g ai/ha): 0 | Plant response rating (0 to 100), Cupgrass, Woolly ([11]; 125 g ai/ha): 0 | Plant response rating, Cupgrass, Woolly ([11]; 250 g ai/ha): 0 | Plant response rating, Cupgrass, Woolly ([11]; 500 g ai/ha): 15 | Plant response rating, Waterhemp_RES1 ([12]; 31 g ai/ha): 70 | Plant response rating, Waterhemp_RES1 ([12]; 62 g ai/ha): 70 | Plant response rating, Waterhemp_RES1 ([12]; 250 g ai/ha): 85 | Plant response rating, Waterhemp_RES1 ([12]; 500 g ai/ha): 85

CCn1cc(C(=O)c2cccs2)c(-c2cc(Cl)cc(Cl)c2)n1 [Compound 18]
Plant response rating (0 to 100), Barley [1]: 0 | Plant response rating, Barley ([1]; 125 g ai/ha): 0 | Plant response rating, Barley ([1]; 250 g ai/ha): 0 | Plant response rating, Barley ([1]; 500 g ai/ha): 0 | Plant response rating (0 to 100), Surinam Grass ([2]; 62 g ai/ha): 5 | Plant response rating (0 to 100), Surinam Grass ([2]; 125 g ai/ha): 5 | Plant response rating, Surinam Grass ([2]; 250 g ai/ha): 10 | Plant response rating, Surinam Grass ([2]; 500 g ai/ha): 10 | Plant response rating (0 to 100), Bermudagrass [3]: 0 | Plant response rating, Bermudagrass ([3]; 125 g ai/ha): 0 | Plant response rating, Bermudagrass ([3]; 250 g ai/ha): 0 | Plant response rating, Bermudagrass ([3]; 500 g ai/ha): 5 | Plant response rating (0 to 100), Windgrass ([4]; 62 g ai/ha): 0 | Plant response rating (0 to 100), Windgrass ([4]; 125 g ai/ha): 0 | Plant response rating, Windgrass ([4]; 250 g ai/ha): 0 | Plant response rating, Windgrass ([4]; 500 g ai/ha): 5 | Plant response rating (0 to 100), Foxtail, Green ([5]; 62 g ai/ha): 0 | Plant response rating (0 to 100), Foxtail, Green ([5]; 125 g ai/ha): 0 | Plant response rating, Foxtail, Green ([5]; 250 g ai/ha): 0 | Plant response rating, Foxtail, Green ([5]; 500 g ai/ha): 0 | Plant response rating (0 to 100), Deadnettle ([6]; 62 g ai/ha): 20 | Plant response rating (0 to 100), Deadnettle ([6]; 125 g ai/ha): 40 | Plant response rating, Deadnettle ([6]; 250 g ai/ha): 55 | Plant response rating, Deadnettle ([6]; 500 g ai/ha): 60 | Plant response rating (0 to 100), Goosegrass ([7]; 62 g ai/ha): 0 | Plant response rating (0 to 100), Goosegrass ([7]; 125 g ai/ha): 0 | Plant response rating, Goosegrass ([7]; 250 g ai/ha): 10 | Plant response rating, Goosegrass ([7]; 500 g ai/ha): 15 | Plant response rating (0 to 100), Bromegrass, Downy [8]: 0 | Plant response rating, Bromegrass, Downy ([8]; 125 g ai/ha): 0 | Plant response rating, Bromegrass, Downy ([8]; 250 g ai/ha): 0 | Plant response rating, Bromegrass, Downy ([8]; 500 g ai/ha): 0 | Plant response rating (0 to 100), Cocklebur ([9]; 62 g ai/ha): 5 | Plant response rating (0 to 100), Cocklebur ([9]; 125 g ai/ha): 5 | Plant response rating, Cocklebur ([9]; 250 g ai/ha): 15 | Plant response rating, Cocklebur ([9]; 500 g ai/ha): 20 | Plant response rating (0 to 100), Canarygrass ([10]; 62 g ai/ha): 0 | Plant response rating (0 to 100), Canarygrass ([10]; 125 g ai/ha): 0 | Plant response rating, Canarygrass ([10]; 250 g ai/ha): 0 | Plant response rating, Canarygrass ([10]; 500 g ai/ha): 5 | Plant response rating (0 to 100), Cupgrass, Woolly ([11]; 62 g ai/ha): 5 | Plant response rating (0 to 100), Cupgrass, Woolly ([11]; 125 g ai/ha): 10 | Plant response rating, Cupgrass, Woolly ([11]; 250 g ai/ha): 15 | Plant response rating, Cupgrass, Woolly ([11]; 500 g ai/ha): 20 | Plant response rating, Waterhemp_RES1 ([12]; 31 g ai/ha): 60 | Plant response rating, Waterhemp_RES1 ([12]; 62 g ai/ha): 70 | Plant response rating, Waterhemp_RES1 ([12]; 125 g ai/ha): 85 | Plant response rating, Waterhemp_RES1 ([12]; 250 g ai/ha): 95 | Plant response rating, Waterhemp_RES1 ([12]; 500 g ai/ha): 95
